In paper PMC7488365 (Acta Pharmaceutica Sinica. B, 2019):
Like-named read-outs stand apart in the source and are kept apart here.

Assays:
USP28 [1] = molecular target: T1, USP28 (Homo sapiens, UniProt Q96RU2); assay: biochemical; format: biochemical; details: for Inhibition rate at 12.5 μmol/L (%): 12.5 μmol/L compound, Ub-AMC substrate; for inhibition at 12.5 µM: read-out: Inhibition rate at 12.5 μmol/L (%)
T1 sequence (Q96RU2 1-700): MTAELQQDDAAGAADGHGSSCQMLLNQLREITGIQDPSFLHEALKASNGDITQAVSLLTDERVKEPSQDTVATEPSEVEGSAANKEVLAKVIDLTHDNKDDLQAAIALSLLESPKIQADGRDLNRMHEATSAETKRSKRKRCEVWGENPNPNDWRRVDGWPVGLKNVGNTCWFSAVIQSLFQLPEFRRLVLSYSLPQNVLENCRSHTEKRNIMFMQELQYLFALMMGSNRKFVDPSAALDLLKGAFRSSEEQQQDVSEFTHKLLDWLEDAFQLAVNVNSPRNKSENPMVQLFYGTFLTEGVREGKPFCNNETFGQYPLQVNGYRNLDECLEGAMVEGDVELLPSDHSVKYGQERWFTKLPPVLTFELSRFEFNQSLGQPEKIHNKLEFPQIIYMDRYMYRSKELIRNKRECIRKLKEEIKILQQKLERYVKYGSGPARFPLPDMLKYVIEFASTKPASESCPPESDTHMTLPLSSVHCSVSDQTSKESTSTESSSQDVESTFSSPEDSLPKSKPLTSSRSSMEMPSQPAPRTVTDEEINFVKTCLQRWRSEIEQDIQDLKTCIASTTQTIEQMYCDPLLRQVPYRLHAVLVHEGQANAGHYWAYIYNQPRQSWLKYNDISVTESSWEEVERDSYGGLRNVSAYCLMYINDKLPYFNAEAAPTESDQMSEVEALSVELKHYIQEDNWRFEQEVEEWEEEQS

USP28 [2] = molecular target: T1, USP28; assay: Bio-layer interferometry; format: binding
[3] = system: USP28, LSD1 and total c-Myc in HGC-27 cells; assay: Western blotting of USP28, LSD1 and total c-Myc; format: cell-based, human; details: HGC-27, 3 h, even at 40 μmol/L
GES-1 cells = assay: cells; details: Homo sapiens, GES1, 72 h, read-out: IC50 cell viability GES-1
MGC-803 cells = assay: cells; details: Homo sapiens, MGC-803, 72 h, read-out: IC50 cell viability MGC-803
MKN45 cells = assay: cells; details: Homo sapiens, MKN-45, 72 h, read-out: IC50 cell viability MKN45
HGC-27 cells = assay: MTT cell viability assay, HGC-27; details: Homo sapiens, HGC-27, 72 h, read-out: IC50 cell viability HGC-27
USP28 [4] = molecular target: T1, USP28; details: read-out: EC50 USP28 inhibition; cited from earlier work

IC50 (USP28 [1]) | Inhibition rate at 12.5 μmol/L (%) (USP28 [1]) | inhibition at 12.5 µM (USP28 [1]) | Compound | other results
20.5 ± 1.45 µM | – | 23.1% | CCCSc1nc(NCc2cccnc2)c2nnn(Cc3ccccc3)c2n1 [Compound 6, 3-Benzyl-5-(propylthio)-N-(pyridin-3-ylmethyl)-3H-[1,2,3]triazolo[4,5-d]pyrimidin-7-amine] | –
10.2 ± 1.3 µM | – | 50% | CCCSc1nc(N2CCNCC2)c2nnn(Cc3ccccc3)c2n1 [Compound 7, 3-Benzyl-7-(piperazin-1-yl)-5-(propylthio)-3H-[1,2,3]triazolo[4,5-d]pyrimidine] | –
> 100 µM | Inactive | – | CCCSc1nc(NCCN)c2nnn(CCO)c2n1 [Compound 12, 2-(7-((2-Aminoethyl)amino)-5-(propylthio)-3H-[1,2,3]triazolo[4,5-d]pyrimidin-3-yl)ethan-1-ol] | Binding to USP28 (in words) (USP28 [2]; BLI): failed to bind; protein levels of USP28, LSD1 and total c-Myc [3]: remained unchanged; IC50 (GES-1 cells): > 100 µM; IC50 (MGC-803 cells): > 50 µM; IC50 (MKN45 cells): > 50 µM; IC50 (HGC-27 cells): > 100 µM
> 100 µM | Inactive | – | CCCSc1nc(NCCN)c2nnn(CCNC(=O)OC(C)(C)C)c2n1 [Compound 13, Tert-butyl(2-(7-((2-aminoethyl)amino)-5-(propylthio)-3H-[1,2,3]triazolo[4,5-d]pyrimidin-3-yl)ethyl)carbamate] | –
24.8 ± 0.58 µM | – | 34% | CCCSc1nc(NCCN)c2nnn(CCc3c[nH]c4ccccc34)c2n1 [Compound 15, N^1-(3-(2-(1H-Indol-3-yl)ethyl)-5-(propylthio)-3H-[1,2,3]triazolo[4,5-d]pyrimidin-7-yl)ethane-1,2-diamine] | –
28.7 ± 1.36 µM | – | 36.2% | CCCSc1nc(NCCN)c2nnn(Cc3ccc(O)cc3)c2n1 [Compound 16, 4-((7-((2-Aminoethyl)amino)-5-(propylthio)-3H-[1,2,3]triazolo[4,5-d]pyrimidin-3-yl)methyl)phenol] | –
6 ± 0.05 µM | – | 76.7% | CCCSc1nc(NCCN)c2nnn(Cc3ccc(Br)cc3)c2n1 [Compound 18, N^1-(3-(4-Bromobenzyl)-5-(propylthio)-3H-[1,2,3]triazolo[4,5-d]pyrimidin-7-yl)ethane-1,2-diamine] | –
23.3 ± 0.59 µM | – | 45% | NCCNc1nc(SCc2ccccc2)nc2c1nnn2Cc1ccc(Cl)cc1 [Compound 22, N^1-(5-(Benzylthio)-3-(4-chlorobenzyl)-3H-[1,2,3]triazolo[4,5-d]pyrimidin-7-yl)ethane-1,2-diamine] | –
14.5 ± 0.19 µM | – | 59.9% | C#CCSc1nc(NCCN)c2nnn(Cc3ccc(Cl)cc3)c2n1 [Compound 24, N^1-(3-(4-Chlorobenzyl)-5-(prop-2-yn-1-ylthio)-3H-[1,2,3]triazolo[4,5-d]pyrimidin-7-yl)ethane-1,2-diamine] | –

Further lines, the molecule ahead of its results:

Compound | IC50 (USP28 [1]) | Inhibition rate at 12.5 μmol/L (%) (USP28 [1]) | inhibition at 12.5 µM (USP28 [1]) | other results
CCCSc1nc(NC2CC2)c2nnn(Cc3ccccc3)c2n1 [Compound 3, 3-Benzyl-N-cyclopropyl-5-(propylthio)-3H-[1,2,3]triazolo[4,5-d]pyrimidin-7-amine] | > 100 µM | Inactive | – | –
CCCSc1nc(NCCCN2CCOCC2)c2nnn(Cc3ccccc3)c2n1 [Compound 4, 3-Benzyl-N-(3-morpholinopropyl)-5-(propylthio)-3H-[1,2,3]triazolo[4,5-d]pyrimidin-7-amine] | > 100 µM | Inactive | – | –
CCCSc1nc(NCc2ccco2)c2nnn(Cc3ccccc3)c2n1 [Compound 5, 3-Benzyl-N-(furan-2-ylmethyl)-5-(propylthio)-3H-[1,2,3]triazolo[4,5-d]pyrimidin-7-amine] | – | – | 45.6% | IC50 (USP28 [1]; read-out: IC50 against USP28, Ub-AMC 100 nmol/L, USP28 62.5 nmol/L): 14.2 ± 0.19 µM
CCCSc1nc(NCCN)c2nnn(Cc3ccccc3)c2n1 [Compound 8, N^1-(3-benzyl-5-(propylthio)-3H-[1,2,3]triazolo[4,5-d]pyrimidin-7-yl)ethane-1,2-diamine] | 4.34 ± 0.3 µM | – | 80% | Kd (USP28 [2]): 0.09 µM
CCCSc1nc(NCCNC(=O)OC(C)(C)C)c2nnn(Cc3ccccc3)c2n1 [Compound 9, Tert-butyl(2-((3-benzyl-5-(propylthio)-3H-[1,2,3]triazolo[4,5-d]pyrimidin-7-yl)amino)ethyl)carbamate] | > 100 µM | Inactive | – | –
CCCSc1nc(NCCN(C)C)c2nnn(Cc3ccccc3)c2n1 [Compound 10, N^1-(3-Benzyl-5-(propylthio)-3H-[1,2,3]triazolo[4,5-d]pyrimidin-7-yl)-N^2,N^2-dimethylethane-1,2-diamine] | > 100 µM | Inactive | – | –
CCCSc1nc(NCCNC)c2nnn(Cc3ccccc3)c2n1 [Compound 11, N^1-(3-Benzyl-5-(propylthio)-3H-[1,2,3]triazolo[4,5-d]pyrimidin-7-yl)-N^2-methylethane-1,2-diamine] | 8.55 ± 0.87 µM | – | 61.7% | –
CCCSc1nc(NCCN)c2nnn(CCCc3ccccc3)c2n1 [Compound 14, N^1-(3-(3-Phenylpropyl)-5-(propylthio)-3H-[1,2,3]triazolo[4,5-d]pyrimidin-7-yl)ethane-1,2-diamine] | 27.6 ± 2.2 µM | – | – | –
CCCSc1nc(NCCN)c2nnn(Cc3ccccc3Cl)c2n1 [Compound 17, N^1-(3-(2-Chlorobenzyl)-5-(propylthio)-3H-[1,2,3]triazolo[4,5-d]pyrimidin-7-yl)ethane-1,2-diamine] | 13.21 ± 0.03 µM | – | 56% | –
CCCSc1nc(NCCNC(C)=O)c2nnn(Cc3ccc(Cl)cc3)c2n1 [Compound 20, N-(2-((3-(4-Chlorobenzyl)-5-(propylthio)-3H-[1,2,3]triazolo[4,5-d]pyrimidin-7-yl)amino)ethyl)acetamide] | > 100 µM | Inactive | – | –
NCCNc1ncnc2c1nnn2Cc1ccc(Cl)cc1 [Compound 21, N^1-(3-(4-Chlorobenzyl)-3H-[1,2,3]triazolo[4,5-d]pyrimidin-7-yl)ethane-1,2-diamine] | 12.3 ± 0.27 µM | – | 62.2% | –
Cc1nc(NCCN)c2nnn(Cc3ccc(Cl)cc3)c2n1 [Compound 23, N^1-(3-(4-Chlorobenzyl)-5-methyl-3H-[1,2,3]triazolo[4,5-d]pyrimidin-7-yl)ethane-1,2-diamine] | 34.8 ± 1.27 µM | – | 35% | –
N#CSc1cc(SC#N)c(N)nc1N [PR-619] | – | – | – | EC50 (USP28 [4]): ~8 µM
